# Source: patent US20080051435A1, “Crystalline and amorphous forms of tiagabine” (Cephalon, Inc., priority 2006, published 2008)
# Assays:
# [1] = Solid-form stability on storage at ambient temperature and humidity, XRPD analysis; type: physicochemical; details: for form conversion during storage: during storage (general description); for solid form by XRPD after storage: stored approximately two months, ambient temperature and humidity, hydrochloride
# From the text: Tiagabine HCl Form K was stored for approximately two months under conditions of ambient temperature and humidity.
# [2] = Moisture sorption/desorption (VTI SGA-100 moisture balance); type: physicochemical
# Description: Moisture sorption/desorption data were collected on a VTI SGA-100 moisture balance system. For sorption isotherms, a sorption range of 5 to 95% relative humidity (RH) and a desorption range of 95 to 5% RH in 10% RH increments were used for analysis. The samples were not dried prior to analysis. Equilibrium criteria used for analysis were less than 0.0100% weight change in 5 minutes with a maximum equilibration time of 3 hours if the weight criterion was not met. Data were not corrected for the initial moisture content of the samples.
SMILES,form conversion during storage ([1]; listed as Tiagabine hydrochloride Form L),solid form by XRPD after storage [1],form conversion during storage ([1]; listed as Tiagabine hydrochloride Form K),solid form by XRPD after moisture sorption/desorption ([2]; XRPD analysis of the sample after moisture sorption/desorption),weight loss from 95% to 5% RH ([2]; desorption 95% to 5% RH),"weight loss upon equilibration at 5% relative humidity (RH) ([2]; equilibration at 5% RH, sample not dried prior to analysis)",weight gain from 5% to 95% RH ([2]; sorption 5% to 95% RH)
"Cc1ccsc1C(=CCCN1CCC[C@@H](C(=O)O)C1)c1sccc1C.Cl [Tiagabine HCl Form L, tiagabine hydrochloride]",converts to a mixture of tiagabine hydrochloride Forms B and Q,a mixture of tiagabine HCl Forms B and Q,,,,,
"Cc1ccsc1C(=CCCN1CCC[C@@H](C(=O)O)C1)c1sccc1C.Cl [Tiagabine HCl Form K, tiagabine hydrochloride]",,a mixture of tiagabine HCl Forms Q and B,converts to a mixture of tiagabine hydrochloride Forms Q and B,,,,
"Cc1ccsc1C(=CCCN1CCC[C@@H](C(=O)O)C1)c1sccc1C [Tiagabine free base Form A, (−)-(R)-1-(4,4-bis(3-methyl-2-thienyl)-3-butenyl)-3-piperidinecarboxylic acid]",,,,tiagabine free base amorphous,18.7%,1.0%,23.5%
